Test results taken from article PMC5356695, “A phase 1 study of oral ridaforolimus in pediatric patients with advanced solid tumors” (Oncotarget, 2016).
Where two headings read alike, the source gives them in different places.

Experiments:
[1] = clinical; conditions: for AUC(0-t) / half-life / concentration at 4 h / concentration at 8 h: human, whole blood
Method: Whole blood samples (2 mL each) for pharmacokinetic analyses were collected at the following time points: <5 minutes before dosing on days 1 through 5 and at 0.5, 1, 2, 4, 8, 24, and 72 hours after drug administration on day 5 of the first week of the first treatment cycle. Blood concentrations of ridaforolimus were determined using a validated liquid chromatography/tandem mass spectrometry assay as in previous ridaforolimus studies (Charles River Laboratories, Shrewsbury, MA). The pharmacokinetic parameters of AUC0–24h and elimination half-life (t1/2) were determined by noncompartmental modeling using WinNonlin software (Pharsight, Certara, Princeton, NJ).

[2] = design: method as in earlier work; conditions: 40 mg once daily 5 days per week, ref data on file with ARIAD Pharmaceuticals, Inc./Merck & Co.; cited from earlier work
[3] = design: method as in PMID 22037923; conditions: cited from earlier work
[4] = system: heavily pretreated solid tumors; design: method as in PMID 23659969; conditions: cited from earlier work
[5] = system: adults with advanced solid tumors; conditions: cited from earlier work
[6] = system: advanced soft tissue and bone sarcomas; conditions: cited from earlier work
[7] = system: advanced solid tumors; test: Antitumor activity, investigator assessment by RECIST v1.1; assay type: in vivo, human
Method: All patients were to have computed tomography or magnetic resonance imaging scans at baseline, every 2 cycles during treatment, and at the time of treatment discontinuation. Local investigator assessment of treatment response was performed using RECIST v1.1 [43].

[8] = 7 pediatric patients aged 13 to 17 years
[9] = 1 patient with pineoblastoma, 22 mg/m^2

For `CO[C@H]1C[C@@H]2CC[C@@H](C)[C@@](O)(O2)C(=O)C(=O)N2CCCC[C@H]2C(=O)O[C@H]([C@H](C)C[C@@H]2CC[C@@H](OP(C)(C)=O)[C@H](OC)C2)CC(=O)[C@H](C)/C=C(\C)[C@@H](O)[C@@H](OC)C(=O)[C@H](C)C[C@H](C)/C=C/C=C/C=C/1C` [ridaforolimus], the “Exposure (day 5 AUC0–24h) higher than adult target level” value ([1]; 28 mg/m^2 vs adult RP2D 40 mg (1,739 h•ng/mL)) was “approximately 34%”, the “BSADN AUC, lower bound of 90% 1-sided confidence interval for geometric mean” value ([1]; 33 mg/m^2) was 61.2 h•ng•m^2/(mL•mg) and the “C4h, lower bound of 90% 1-sided confidence interval for geometric mean” value ([1]; 33 mg/m^2) was 154 ng/mL. The “C8h, lower bound of 90% 1-sided confidence interval for geometric mean” value ([1]; 33 mg/m^2) was 100 ng/mL, the “Day 5 AUC0–24h, lower bound of 90% 1-sided confidence interval for geometric mean” value ([1]; 33 mg/m^2) was 2,020 h•ng/mL and the “t1/2, lower bound of 90% 1-sided confidence interval for geometric mean” value ([1]; 33 mg/m^2) was 23.0 h. The “BSADN AUC (AUC normalized by BSA-adjusted dose), geometric mean” value ([1]; 33 mg/m^2, n = 11) was 69.8 h•ng•m^2/(mL•mg), the “Exposure (day 5 AUC0–24h) higher than adult target level” value ([1]; 33 mg/m^2 vs adult RP2D 40 mg (1,739 h•ng/mL)) was roughly 31% and the AUC(0-t) ([1]; oral, 22 mg/m2) was 1340 ng·h/mL. For the same compound, the half-life ([1]; oral, 22 mg/m2, t1/2, arithmetic mean (SD), 22 mg/m^2, n = 3) was 25.5 h, the half-life ([1]; oral, 22 mg/m2, t1/2, geometric mean (CV%), 22 mg/m^2, n = 3) was 25.5 h and the half-life ([1]; oral, 22 mg/m2, t1/2, median (range), 22 mg/m^2, n = 3) was 24.5 h. The concentration at 4 h ([1]; oral, 22 mg/m^2, C4h, arithmetic mean (SD), day 5, 22 mg/m^2, n = 4) was 139 ng/mL, the concentration at 4 h ([1]; oral, 22 mg/m^2, C4h, geometric mean (CV%), day 5, 22 mg/m^2, n = 4) was 131 ng/mL and the concentration at 8 h ([1]; oral, 22 mg/m^2, C8h, arithmetic mean (SD), day 5, 22 mg/m^2, n = 4) was 74 ng/mL. For the same compound, the concentration at 8 h ([1]; oral, 22 mg/m^2, C8h, geometric mean (CV%), day 5, 22 mg/m^2, n = 4) was 71 ng/mL, the AUC(0-t) ([1]; oral, 28 mg/m2) was 2330 ng·h/mL and the half-life ([1]; oral, 28 mg/m2, t1/2, arithmetic mean (SD), 28 mg/m^2, n = 3) was 28.2 h. For the same compound, the half-life ([1]; oral, 28 mg/m2, t1/2, geometric mean (CV%), 28 mg/m^2, n = 3) was 27.2 h, the half-life ([1]; oral, 28 mg/m2, t1/2, median (range), 28 mg/m^2, n = 3) was 26.5 h and the concentration at 4 h ([1]; oral, 28 mg/m^2, C4h, arithmetic mean (SD), day 5, 28 mg/m^2, n = 3) was 228 ng/mL. The concentration at 4 h ([1]; oral, 28 mg/m^2, C4h, geometric mean (CV%), day 5, 28 mg/m^2, n = 3) was 227 ng/mL, the concentration at 8 h ([1]; oral, 28 mg/m^2, C8h, arithmetic mean (SD), day 5, 28 mg/m^2, n = 3) was 119 ng/mL and the concentration at 8 h ([1]; oral, 28 mg/m^2, C8h, geometric mean (CV%), day 5, 28 mg/m^2, n = 3) was 116 ng/mL. For the same compound, the AUC(0-t) ([1]; oral, 33 mg/m2) was 2280 ng·h/mL, the half-life ([1]; oral, 33 mg/m2, t1/2, arithmetic mean (SD), 33 mg/m^2, n = 9) was 26.9 h and the half-life ([1]; oral, 33 mg/m2, t1/2, geometric mean (CV%), 33 mg/m^2, n = 9) was 26 h. For the same compound, the half-life ([1]; oral, 33 mg/m2, t1/2, median (range), 33 mg/m^2, n = 9) was 24.9 h, the concentration at 4 h ([1]; oral, 33 mg/m^2, C4h, arithmetic mean (SD), day 5, 33 mg/m^2, n = 11) was 200 ng/mL and the concentration at 4 h ([1]; oral, 33 mg/m^2, C4h, geometric mean (CV%), day 5, 33 mg/m^2, n = 11) was 184 ng/mL. For the same compound, the concentration at 8 h ([1]; oral, 33 mg/m^2, C8h, arithmetic mean (SD), day 5, 33 mg/m^2, n = 12) was 118 ng/mL, the concentration at 8 h ([1]; oral, 33 mg/m^2, C8h, geometric mean (CV%), day 5, 33 mg/m^2, n = 12) was 113 ng/mL and the half-life ([1]; oral, Mean (geometric) elimination half-lives, independent of dose level) was 26 to 27 h. For the same compound, the “Steady state from trough concentrations (predose days 1 through 5)” value ([1]; oral once daily) was “steady-state concentrations had been achieved at day 5”, the “Lag before absorption after dosing” value ([1]; oral, all dose levels) was “approximately 2 hours” and the “Time of highest blood concentrations after dosing” value ([1]; oral, all dose levels) was roughly 4 h. The “Day 5 AUC0–24h in adults, estimated geometric mean” value [2] was 1,739 h•ng/mL, the “Blood–brain barrier passage” value [3] was “crosses the blood–brain barrier” and the “Stable disease in patients with central nervous system tumors” value ([4]; intravenous 8-16 mg/m^2) was 4 of 6. For the same compound, the “Stable disease in patients with sarcomas” value ([4]; intravenous 8-16 mg/m^2) was 2 of 8, the “Patients with stable disease / clinical benefit” value ([4]; intravenous 8-16 mg/m^2 daily for 5 consecutive days every other week, of 15 evaluable (40%)) was 6 patients and the DLTs ([4]; intravenous 8–16 mg/m^2 daily for 5 consecutive days every other week) was “no DLTs were observed”. For the same compound, the MTD ([5]; intravenous) was 18.75 mg/day, the “Adult RP2D” value ([5]; oral, once daily for 5 days per week) was 40 mg and the MTD ([5]; oral, once daily × 5 days per week regimen) was 40 mg. The “Patients with partial response” value [6, 8] was 1, the “Patients with progressive disease” value [6, 8] was 2 and the “Patients with stable disease” value [6, 8] was 4. The “Reduction of risk of progression or death compared with placebo” value ([6]; oral, after benefit from preceding chemotherapy) was 28%, the “Patients discontinued due to progressive disease” value ([7]; 33 mg/m^2 (n = 13), 77%) was 10 patients and the Progression-free survival ([7]; 1 patient with diffuse intrinsic pontine glioma) was greater than 42 months. For the same compound, the “Duration of stable disease” value ([7]; 1 patient with diffuse intrinsic pontine glioma, 33 mg/m^2, as of January 2016) was 46 cycles, the “Duration of stable disease” value [7, 9] was 12 cycles and the Progression-free survival [7, 9] was 12.8 months. For the same compound, the “Partial or complete response” value ([7]; all patients, N = 20) was “None of the patients had a partial or complete response” and the “Patients with evidence of clinical benefit” value ([7]; of the 20 treated pediatric patients (10%)) was 2 patients.
